Article PMC7311426, “An amphipathic peptide with antibiotic activity against multidrug-resistant Gram-negative bacteria” (Nature Communications, 2020)
≈ marks a conversion by molar mass, not a printed value.

What was measured:
Test in all cases: microbe, parasite or virus in culture
[1] = tested on: P. aeruginosa
How it was run: (§1)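 MICs were scored by eye after 18-20 h static incubation at 37 °C, with bacteria at 5 × 10^5 CFU mL^−1 in MHB. Peptides were serially diluted 2-fold over 12 points, top 128 or 64 μg mL^−1. CAMHB (CLSI) and 1% agarose-MHB variants were also run, at least six replicates.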

[2] = tested on: K. pneumoniae
How it was run: as §1

[3] = tested on: E. coli
How it was run: as §1

Question: Which results are given for CN(C)c1cc(NC(=O)CNC(C)(C)C)c(O)c2c1C[C@H]1C[C@H]3[C@H](N(C)C)C(O)=C(C(N)=O)C(=O)[C@@]3(O)C(O)=C1C2=O [TIG]?
Answer: MIC, broth microdilution ([1]; P. aeruginosa ATCC 27853 parent strain not exposed to drug): 8 µg/mL (≈ 13.7 µM); MIC, broth microdilution ([1]; P. aeruginosa ATCC 27853 spontaneous mutant, AA139 selection 4X, plate 1, colony 1, drug-free passage 1): 8, 8 µg/mL; MIC, broth microdilution ([1]; P. aeruginosa ATCC 27853 spontaneous mutant, AA139 selection 4X, plate 1, colony 1, drug-free passage 5): 8, 8 µg/mL; MIC, broth microdilution ([1]; P. aeruginosa ATCC 27853 spontaneous mutant, AA139 selection 4X, plate 1, colony 2, drug-free passage 1): 8, 8 µg/mL; MIC, broth microdilution ([1]; P. aeruginosa ATCC 27853 spontaneous mutant, AA139 selection 4X, plate 1, colony 2, drug-free passage 5): 8, 8 µg/mL; MIC, broth microdilution ([1]; P. aeruginosa ATCC 27853 spontaneous mutant, AA139 selection 4X, plate 1, colony 3, drug-free passage 1): 8, 8 µg/mL; MIC, broth microdilution ([1]; P. aeruginosa ATCC 27853 spontaneous mutant, AA139 selection 4X, plate 1, colony 3, drug-free passage 5): 8, 8 µg/mL; MIC, broth microdilution ([1]; P. aeruginosa ATCC 27853 spontaneous mutant, AA139 selection 4X, plate 1, colony 4, drug-free passage 1): 8, 8 µg/mL; MIC, broth microdilution ([1]; P. aeruginosa ATCC 27853 spontaneous mutant, AA139 selection 4X, plate 1, colony 4, drug-free passage 5): 8, 8 µg/mL; MIC, broth microdilution ([1]; P. aeruginosa ATCC 27853 spontaneous mutant, AA139 selection 4X, plate 1, colony 5, drug-free passage 1): 16, 16 µg/mL; MIC, broth microdilution ([1]; P. aeruginosa ATCC 27853 spontaneous mutant, AA139 selection 4X, plate 1, colony 5, drug-free passage 5): 16, 16 µg/mL; MIC, broth microdilution ([1]; P. aeruginosa ATCC 27853 spontaneous mutant, AA139 selection 4X, plate 1, colony 6, drug-free passage 1): 8, 8 µg/mL; MIC, broth microdilution ([1]; P. aeruginosa ATCC 27853 spontaneous mutant, AA139 selection 4X, plate 1, colony 6, drug-free passage 5): 8, 8 µg/mL; MIC, broth microdilution ([1]; P. aeruginosa ATCC 27853 spontaneous mutant, AA139 selection 4X, plate 2, colony 1, drug-free passage 1): 8, 8 µg/mL; MIC, broth microdilution ([1]; P. aeruginosa ATCC 27853 spontaneous mutant, AA139 selection 4X, plate 2, colony 1, drug-free passage 5): 8, 8 µg/mL; MIC, broth microdilution ([1]; P. aeruginosa ATCC 27853 spontaneous mutant, AA139 selection 4X, plate 2, colony 2, drug-free passage 1): 8, 8 µg/mL; MIC, broth microdilution ([1]; P. aeruginosa ATCC 27853 spontaneous mutant, AA139 selection 4X, plate 2, colony 2, drug-free passage 5): 8, 8 µg/mL; MIC, broth microdilution ([1]; P. aeruginosa ATCC 27853 spontaneous mutant, AA139 selection 4X, plate 2, colony 3, drug-free passage 1): 8, 8 µg/mL; MIC, broth microdilution ([1]; P. aeruginosa ATCC 27853 spontaneous mutant, AA139 selection 4X, plate 2, colony 3, drug-free passage 5): 8, 8 µg/mL; MIC, broth microdilution ([1]; P. aeruginosa ATCC 27853 spontaneous mutant, AA139 selection 4X, plate 2, colony 4, drug-free passage 1): 8, 8 µg/mL; MIC, broth microdilution ([1]; P. aeruginosa ATCC 27853 spontaneous mutant, AA139 selection 4X, plate 2, colony 4, drug-free passage 5): 8, 8 µg/mL; MIC, broth microdilution ([1]; P. aeruginosa ATCC 27853 spontaneous mutant, AA139 selection 8X, plate 1, colony 1, drug-free passage 1): 8, 8 µg/mL; MIC, broth microdilution ([1]; P. aeruginosa ATCC 27853 spontaneous mutant, AA139 selection 8X, plate 1, colony 1, drug-free passage 5): 8, 8 µg/mL; MIC, broth microdilution ([1]; P. aeruginosa ATCC 27853 spontaneous mutant, AA139 selection 8X, plate 1, colony 2, drug-free passage 1): 8, 8 µg/mL; MIC, broth microdilution ([1]; P. aeruginosa ATCC 27853 spontaneous mutant, AA139 selection 8X, plate 1, colony 2, drug-free passage 5): 8, 8 µg/mL; MIC, broth microdilution ([1]; P. aeruginosa ATCC 27853 spontaneous mutant, AA139 selection 8X, plate 1, colony 3, drug-free passage 1): 8, 8 µg/mL; MIC, broth microdilution ([1]; P. aeruginosa ATCC 27853 spontaneous mutant, AA139 selection 8X, plate 1, colony 3, drug-free passage 5): 8, 8 µg/mL; MIC, broth microdilution ([1]; P. aeruginosa ATCC 27853 spontaneous mutant, AA139 selection 8X, plate 1, colony 4, drug-free passage 1): 8, 8 µg/mL; MIC, broth microdilution ([1]; P. aeruginosa ATCC 27853 spontaneous mutant, AA139 selection 8X, plate 1, colony 4, drug-free passage 5): 8, 8 µg/mL; MIC, broth microdilution ([1]; P. aeruginosa ATCC 27853 spontaneous mutant, AA139 selection 8X, plate 1, colony 5, drug-free passage 1): 8, 8 µg/mL; MIC, broth microdilution ([1]; P. aeruginosa ATCC 27853 spontaneous mutant, AA139 selection 8X, plate 1, colony 5, drug-free passage 5): 8, 8 µg/mL; MIC, broth microdilution ([1]; P. aeruginosa UNT 138-1 parent strain not exposed to drug): 8 µg/mL (≈ 13.7 µM); MIC, broth microdilution ([1]; P. aeruginosa UNT 138-1 spontaneous mutant, AA139 selection 4X, plate 1, colony 1, drug-free passage 1): 16, 16 µg/mL; MIC, broth microdilution ([1]; P. aeruginosa UNT 138-1 spontaneous mutant, AA139 selection 4X, plate 1, colony 1, drug-free passage 5): 16, 16 µg/mL; MIC, broth microdilution ([1]; P. aeruginosa UNT 138-1 spontaneous mutant, AA139 selection 4X, plate 1, colony 2, drug-free passage 1): 16, 16 µg/mL; MIC, broth microdilution ([1]; P. aeruginosa UNT 138-1 spontaneous mutant, AA139 selection 4X, plate 1, colony 2, drug-free passage 5): 16, 16 µg/mL; MIC, broth microdilution ([1]; P. aeruginosa UNT 138-1 spontaneous mutant, AA139 selection 4X, plate 1, colony 3, drug-free passage 1): 16, 16 µg/mL; MIC, broth microdilution ([1]; P. aeruginosa UNT 138-1 spontaneous mutant, AA139 selection 4X, plate 1, colony 3, drug-free passage 5): 16, 16 µg/mL; MIC, broth microdilution ([1]; P. aeruginosa UNT 138-1 spontaneous mutant, AA139 selection 4X, plate 1, colony 4, drug-free passage 1): 16, 16 µg/mL; MIC, broth microdilution ([1]; P. aeruginosa UNT 138-1 spontaneous mutant, AA139 selection 4X, plate 1, colony 4, drug-free passage 5): 16, 16 µg/mL; MIC, broth microdilution ([1]; P. aeruginosa UNT 138-1 spontaneous mutant, AA139 selection 4X, plate 1, colony 5, drug-free passage 1): 16, 16 µg/mL; MIC, broth microdilution ([1]; P. aeruginosa UNT 138-1 spontaneous mutant, AA139 selection 4X, plate 1, colony 5, drug-free passage 5): 16, 16 µg/mL; MIC, broth microdilution ([1]; P. aeruginosa UNT 138-1 spontaneous mutant, AA139 selection 4X, plate 1, colony 6, drug-free passage 1): 16, 16 µg/mL; MIC, broth microdilution ([1]; P. aeruginosa UNT 138-1 spontaneous mutant, AA139 selection 4X, plate 1, colony 6, drug-free passage 5): 16, 16 µg/mL; MIC, broth microdilution ([1]; P. aeruginosa UNT 138-1 spontaneous mutant, AA139 selection 4X, plate 1, colony 7, drug-free passage 1): 16, 16 µg/mL; MIC, broth microdilution ([1]; P. aeruginosa UNT 138-1 spontaneous mutant, AA139 selection 4X, plate 1, colony 7, drug-free passage 5): 16, 16 µg/mL; MIC, broth microdilution ([1]; P. aeruginosa UNT 138-1 spontaneous mutant, AA139 selection 4X, plate 2, colony 1, drug-free passage 1): 16, 16 µg/mL; MIC, broth microdilution ([1]; P. aeruginosa UNT 138-1 spontaneous mutant, AA139 selection 4X, plate 2, colony 1, drug-free passage 5): 16, 16 µg/mL; MIC, broth microdilution ([1]; P. aeruginosa UNT 138-1 spontaneous mutant, AA139 selection 4X, plate 2, colony 2, drug-free passage 1): 16, 16 µg/mL; MIC, broth microdilution ([1]; P. aeruginosa UNT 138-1 spontaneous mutant, AA139 selection 4X, plate 2, colony 2, drug-free passage 5): 16, 16 µg/mL; MIC, broth microdilution ([1]; P. aeruginosa UNT 138-1 spontaneous mutant, AA139 selection 4X, plate 2, colony 3, drug-free passage 1): 16, 16 µg/mL; MIC, broth microdilution ([1]; P. aeruginosa UNT 138-1 spontaneous mutant, AA139 selection 4X, plate 2, colony 3, drug-free passage 5): 16, 16 µg/mL; MIC, broth microdilution ([1]; P. aeruginosa UNT 138-1 spontaneous mutant, AA139 selection 4X, plate 2, colony 4, drug-free passage 1): 16, 16 µg/mL; MIC, broth microdilution ([1]; P. aeruginosa UNT 138-1 spontaneous mutant, AA139 selection 4X, plate 2, colony 4, drug-free passage 5): 16, 16 µg/mL; MIC, broth microdilution ([1]; P. aeruginosa UNT 138-1 spontaneous mutant, AA139 selection 4X, plate 2, colony 5, drug-free passage 1): 16, 16 µg/mL; MIC, broth microdilution ([1]; P. aeruginosa UNT 138-1 spontaneous mutant, AA139 selection 4X, plate 2, colony 5, drug-free passage 5): 16, 16 µg/mL; MIC, broth microdilution ([1]; P. aeruginosa UNT 138-1 spontaneous mutant, AA139 selection 4X, plate 2, colony 6, drug-free passage 1): 16, 16 µg/mL; MIC, broth microdilution ([1]; P. aeruginosa UNT 138-1 spontaneous mutant, AA139 selection 4X, plate 2, colony 6, drug-free passage 5): 16, 16 µg/mL; MIC, broth microdilution ([1]; P. aeruginosa UNT 138-1 spontaneous mutant, AA139 selection 4X, plate 2, colony 7, drug-free passage 1): 8 µg/mL (≈ 13.7 µM); MIC, broth microdilution ([1]; P. aeruginosa UNT 138-1 spontaneous mutant, AA139 selection 4X, plate 2, colony 7, drug-free passage 5): 16 µg/mL (≈ 27.3 µM); MIC, broth microdilution ([1]; P. aeruginosa UNT 138-1 spontaneous mutant, AA139 selection 8X, plate 1, colony 1, drug-free passage 1): 8 µg/mL (≈ 13.7 µM); MIC, broth microdilution ([1]; P. aeruginosa UNT 138-1 spontaneous mutant, AA139 selection 8X, plate 1, colony 1, drug-free passage 5): 16 µg/mL (≈ 27.3 µM); MIC, broth microdilution ([1]; P. aeruginosa UNT 138-1 spontaneous mutant, AA139 selection 8X, plate 1, colony 2, drug-free passage 1): 8 µg/mL (≈ 13.7 µM); MIC, broth microdilution ([1]; P. aeruginosa UNT 138-1 spontaneous mutant, AA139 selection 8X, plate 1, colony 2, drug-free passage 5): 16 µg/mL (≈ 27.3 µM); MIC, broth microdilution ([1]; P. aeruginosa UNT 138-1 spontaneous mutant, AA139 selection 8X, plate 1, colony 3, drug-free passage 1): 8 µg/mL (≈ 13.7 µM); MIC, broth microdilution ([1]; P. aeruginosa UNT 138-1 spontaneous mutant, AA139 selection 8X, plate 1, colony 3, drug-free passage 5): 16 µg/mL (≈ 27.3 µM); MIC, broth microdilution ([1]; P. aeruginosa UNT 138-1 spontaneous mutant, AA139 selection 8X, plate 1, colony 4, drug-free passage 1): 8 µg/mL (≈ 13.7 µM); MIC, broth microdilution ([1]; P. aeruginosa UNT 138-1 spontaneous mutant, AA139 selection 8X, plate 1, colony 4, drug-free passage 5): 16 µg/mL (≈ 27.3 µM); MIC, broth microdilution ([1]; P. aeruginosa UNT 138-1 spontaneous mutant, AA139 selection 8X, plate 1, colony 5, drug-free passage 1): 16, 16 µg/mL; MIC, broth microdilution ([1]; P. aeruginosa UNT 138-1 spontaneous mutant, AA139 selection 8X, plate 1, colony 5, drug-free passage 5): 16, 16 µg/mL; MIC, broth microdilution ([1]; P. aeruginosa UNT 138-1 spontaneous mutant, AA139 selection 8X, plate 2, colony 1, drug-free passage 1): 16, 16 µg/mL; MIC, broth microdilution ([1]; P. aeruginosa UNT 138-1 spontaneous mutant, AA139 selection 8X, plate 2, colony 1, drug-free passage 5): 16, 16 µg/mL; MIC, broth microdilution ([2]; K. pneumoniae 3010 parent strain not exposed to drug): 0.5 µg/mL (≈ 0.854 µM); MIC, broth microdilution ([2]; K. pneumoniae 3010 spontaneous mutant, AA139 selection 4X, plate 1, colony 1, drug-free passage 1): 0.5, 0.5 µg/mL; MIC, broth microdilution ([2]; K. pneumoniae 3010 spontaneous mutant, AA139 selection 4X, plate 1, colony 1, drug-free passage 5): 0.5, 0.5 µg/mL; MIC, broth microdilution ([2]; K. pneumoniae 3010 spontaneous mutant, AA139 selection 8X, plate 1, colony 1, drug-free passage 1): 0.5, 0.5 µg/mL; MIC, broth microdilution ([2]; K. pneumoniae 3010 spontaneous mutant, AA139 selection 8X, plate 1, colony 1, drug-free passage 5): 0.5, 0.5 µg/mL; MIC, broth microdilution ([2]; K. pneumoniae ST258 parent strain not exposed to drug): 0.5 µg/mL (≈ 0.854 µM); MIC, broth microdilution ([2]; K. pneumoniae ST258 spontaneous mutant, AA139 selection 4X, plate 1, colony 1, drug-free passage 1): 0.5, 0.5 µg/mL; MIC, broth microdilution ([2]; K. pneumoniae ST258 spontaneous mutant, AA139 selection 4X, plate 1, colony 1, drug-free passage 5): 0.5, 0.5 µg/mL; MIC, broth microdilution ([3]; E. coli AUD172 parent strain not exposed to drug): 0.12 µg/mL (≈ 0.205 µM); MIC, broth microdilution ([3]; E. coli AUD172 spontaneous mutant, AA139 selection 4X, plate 2, colony 2, drug-free passage 1): 0.12 µg/mL (≈ 0.205 µM); MIC, broth microdilution ([3]; E. coli AUD172 spontaneous mutant, AA139 selection 4X, plate 2, colony 2, drug-free passage 5): 0.5 µg/mL (≈ 0.854 µM)
